Active and inactive are the calls of the source. The calls are words filed in the database; no cut-off is given here.
Assays:
MCF7 = experiment: Cytotoxicity against human MCF7 cells after 24 hrs by MTT assay; format: functional, cell-based; settings: MCF7, 24 h
BT-483 [1] = experiment: Cytotoxicity against human BT-483 cells after 24 hrs by MTT assay; format: functional, cell-based; settings: BT-483, 24 h
BT-483 [2] = experiment: Induction of apoptosis in human BT-483 cells assessed as live cells at 5 uM by Annexin V-FITC/propidium iodide staining based flow cytometry (reference value: 87.5%); format: functional
BT-483 [3] = experiment: Induction of apoptosis in human BT-483 cells assessed as late apoptotic cells at 5 uM by Annexin V-FITC/propidium iodide staining based flow cytometry (reference value: 0.36%); format: functional
BT-483 [4] = experiment: Induction of apoptosis in human BT-483 cells by Annexin V-FITC/propidium iodide staining based flow cytometry; format: functional, cell-based
MDA-MB-231 = experiment: Cytotoxicity against human MDA-MB-231 cells after 24 hrs by MTT assay; format: functional, cell-based
MDA-MB-468 = experiment: Cytotoxicity against human MDA-MB-468 cells after 24 hrs by MTT assay; format: functional, cell-based
[5] = molecular target: Serine/threonine-protein kinase PLK1 (Homo sapiens, UniProt P53350); experiment: Inhibition of PLK1 autophosphorylation in human BT-483 cells at 5 to 10 uM by Western blot analysis; format: cell-based
BT-483 [6] = experiment: Effect on total EEF2 protein expression in human BT-483 cells at 5 to 10 uM by Western blot analysis; format: ADME, cell-based; settings: bt-483, 10 µM
BT-483 [7] = experiment: Effect on caspase-8 protein expression in human BT-483 cells at 5 to 10 uM by Western blot analysis; format: functional, cell-based
BT-483 [8] = experiment: Effect on FADD protein expression in human BT-483 cells at 5 to 10 uM by Western blot analysis; format: functional, cell-based
BT-483 [9] = experiment: Effect on Fas protein expression in human BT-483 cells at 5 to 10 uM by Western blot analysis; format: functional, cell-based
[10] = tested on: Tyrosine-protein kinase ABL1 (Homo sapiens), P00519 [T315I]; experiment: Inhibition of human phosphorylated ABL1 T315I mutant (S229 to K512 residues) expressed in mammalian expression system assessed as residual activity at 1 uM by Kinomescan method relative to control
[11] = molecular target: Activin receptor type-1B (Homo sapiens) (UniProt P36896); experiment: Inhibition of wild-type human ACVR1B (S187 to I505 residues) expressed in bacterial expression system assessed as residual activity at 1 uM by Kinomescan method relative to control
[12] = molecular target: Tyrosine-protein kinase BTK (Homo sapiens) (UniProt Q06187); experiment: Inhibition of wild-type human full length BTK (M1 to S659 residues) expressed in mammalian expression system assessed as residual activity at 1 uM by Kinomescan method relative to control
[13] = molecular target: Receptor tyrosine-protein kinase erbB-4 (Homo sapiens) (UniProt Q15303); experiment: Inhibition of wild-type human partial length ERBB4 (L690 to K994 residues) expressed in bacterial expression system assessed as residual activity at 1 uM by Kinomescan method relative to control
[14] = molecular target: Fibroblast growth factor receptor 1 (Homo sapiens) (UniProt P11362); experiment: Inhibition of wild-type human partial length FGFR1 (P357 to V669 residues) expressed in bacterial expression system assessed as residual activity at 1 uM by Kinomescan method relative to control
[15] = molecular target: Inhibitor of nuclear factor kappa-B kinase subunit beta (Homo sapiens) (UniProt O14920); experiment: Inhibition of wild-type human full length IKK-beta (M1 to S756 residues) expressed in mammalian expression system assessed as residual activity at 1 uM by Kinomescan method relative to control
[16] = molecular target: Mitogen-activated protein kinase 8 (Homo sapiens) (UniProt P45983); experiment: Inhibition of wild-type human full length JNK1 (M1 to Q384 residues) expressed in mammalian expression system assessed as residual activity at 1 uM by Kinomescan method relative to control
[17] = molecular target: Mitogen-activated protein kinase 9 (Homo sapiens) (UniProt P45984); experiment: Inhibition of wild-type human full length JNK2 (M1 to Q382 residues) expressed in mammalian expression system assessed as residual activity at 1 uM by Kinomescan method relative to control
[18] = tested on: Mast/stem cell growth factor receptor Kit (Homo sapiens), P10721 [D816V]; experiment: Inhibition of human partial length KIT D816V mutant (I571 to D952 residues) expressed in bacterial expression system assessed as residual activity at 1 uM by Kinomescan method relative to control
[19] = tested on: Mast/stem cell growth factor receptor Kit (Homo sapiens), P10721 [V559D,T670I]; experiment: Inhibition of human partial length KIT V559D/T670I double mutant (Y545 to D952 residues) expressed in bacterial expression system assessed as residual activity at 1 uM by Kinomescan method relative to control
[20] = molecular target: Dual specificity mitogen-activated protein kinase kinase 2 (Homo sapiens) (UniProt P36507); experiment: Inhibition of wild-type human full length MEK2 (M1 to V400 residues) expressed in mammalian expression system assessed as residual activity at 1 uM by Kinomescan method relative to control
[21] = molecular target: Serine/threonine-protein kinase PAK 1 (Homo sapiens) (UniProt Q13153); experiment: Inhibition of wild-type human partial length PAK1 (S149 to H545 residues) expressed in bacterial expression system assessed as residual activity at 1 uM by Kinomescan method relative to control
[22] = molecular target: 3-phosphoinositide-dependent protein kinase 1 (Homo sapiens) (UniProt O15530); experiment: Inhibition of wild-type human full length PDPK1 (M1 to Q556 residues) expressed in bacterial expression system assessed as residual activity at 1 uM by Kinomescan method relative to control
[23] = molecular target: Serine/threonine-protein kinase pim-1 (Homo sapiens) (UniProt P11309); experiment: Inhibition of wild-type human partial length PIM1 (A15 to K313 residues) expressed in bacterial expression system assessed as residual activity at 1 uM by Kinomescan method relative to control
[24] = molecular target: RAF proto-oncogene serine/threonine-protein kinase (Homo sapiens) (UniProt P04049); experiment: Inhibition of wild-type human partial length RAF1 (I330 to T640 residues) expressed in bacterial expression system assessed as residual activity at 1 uM by Kinomescan method relative to control
[25] = molecular target: SRSF protein kinase 3 (Homo sapiens) (UniProt Q9UPE1); experiment: Inhibition of wild-type human partial length SRPK3 (P41 to P567 residues) expressed in bacterial expression system assessed as residual activity at 1 uM by Kinomescan method relative to control
[26] = molecular target: Angiopoietin-1 receptor (Homo sapiens) (UniProt Q02763); experiment: Inhibition of wild-type human partial length TIE2 (N804 to T1112 residues) expressed in bacterial expression system assessed as residual activity at 1 uM by Kinomescan method relative to control
[27] = molecular target: Testis-specific serine/threonine-protein kinase 1 (Homo sapiens) (UniProt Q9BXA7); experiment: Inhibition of wild-type human full length TSSK1B (M1 to Q367 residues) expressed in bacterial expression system assessed as residual activity at 1 uM by Kinomescan method relative to control

CCNc1cc(-c2ccc(NC(=O)Nc3cccc(Cl)c3)cc2C(F)(F)F)ccn1
IC50 (MCF7): 1.24 µM | IC50 (BT-483 [1]): 13.3 µM | Activity (BT-483 [2]): 86.2% | Activity (BT-483 [3]): 6.67% | Activity (BT-483 [4]): Dose-dependent effect | Activity (MDA-MB-231): Active | Activity (MDA-MB-468): Active | inhibition [5]: Active | Activity (BT-483 [6]): Non-Toxic | Activity (BT-483 [7]): inactive | Activity (BT-483 [8]): inactive | Activity (BT-483 [9]): inactive | Activity [10]: 96% | Activity [11]: 85% | Activity [12]: 83% | Activity [13]: 92% | Activity [14]: 91% | Activity [15]: 92% | Activity [16]: 75% | Activity [17]: 93% | Activity [18]: 84% | Activity [19]: 93% | Activity [20]: 67% | Activity [21]: 70% | Activity [22]: 63% | Activity [23]: 66% | Activity [24]: 64% | Activity [25]: 98% | Activity [26]: 94% | Activity [27]: 64%

From ChEMBL document CHEMBL4251622, “Design, synthesis, and biological evaluation of polo-like kinase 1/eukaryotic elongation factor 2 kinase (PLK1/EEF2K) dual inhibitors for regulating breast cancer cells apoptosis and autophagy” (Eur J Med Chem, 2018)
